Consider one compound from patent publication US20160220602A1, “USE OF CHINESE MEDICINE PREPARATION IN PREPARING DRUG FOR PREVENTING AND/OR TREATING CROHN'S DISEASE” (TASLY PHARMACEUTICAL GROUP CO., LTD., priority 2013, published 2016).

The structures appear in SMILES notation.

Experiment [1] has as its system zebra fish Crohn's disease model. Kind of experiment: Histopathology of intestinal tissue in zebra fish Crohn's disease model (H&E). Type of experiment: in vivo. The note with it: 10 μM in fish farm water.
For experiment [2], the system named is transgenic neutrophil fluorescent zebra fish Crohn's disease model. The following applies: 10 μM in fish farm water.
Experiment [3] has as its system zebra fish Crohn's disease model established with TNBS. Nature of the experiment: Efficacy in zebra fish Crohn's disease model (intestinal area, diameter, therapeutic ratio). Format: in vivo. The note with it: 10 μM in fish farm water, 48 hours. As to the method:
Meanwhile, the positive control group, blank control group, Crohn's disease model group and excipient control group were set in the research. In the positive control group, the prednisolone was finally at concentration of 10 μM in fish farm water. The enema excipient disclosed in Chinese patent (CN 1192787 C) was used in the excipient control group, including adding PEG-400 solutions containing tragacanth and potassium sorbate into the fish farm water in the volume ratio of 0.3%. Wherein, the PEG-400 solution was prepared following method: adding 1.5 g of tragacanth and 2 g of potassium sorbate (particle size of 150 μm) into 28ml PEG.
30 zebra fish were randomly given to each group. […] The image analysis software was used to analyze the pictures. Meanwhile, intestine mucosal thickness, intestinal diameter and intestinal area were observed carefully under the microscope and the intestinal diameter and intestinal area analyzed quantitatively. Therapeutic ratio of tested drug in zebra fish Crohn's disease was calculated in accordance with the intestinal area in each group. The calculation formula was present as follows: […]
Variance analysis was used for comparison among many groups and Dunnett's T test for comparison between two groups.

As for `C[C@]12C=CC(=O)C=C1CC[C@@H]1[C@@H]2[C@@H](O)C[C@@]2(C)[C@H]1CC[C@]2(O)C(=O)CO` [prednisolone], the “Intestinal histopathology (H&E)” value in experiment [1] was “the intestinal mucosal histopathology was improved obviously”. Further, in experiment [2], the “Inflammation regression ratio (%) (Mean ± SE)” value worked out at 81±2.48%; the “Number of neutrophil (Mean ± SD)” value is listed as 20 ± 1; the “Number of neutrophil, Ratio of the blank control group (Mean ± SE)” value amounted to 1.22 ± 0.03. Further, in experiment [3], the “Intestinal area (Mean ± SD)” value came out at 48646 ± 4685; the “Intestinal area, Ratio of blank control group (Mean ± SE)” value was 1.31 ± 0.04; the “Intestinal diameter (Mean ± SD)” value came to 137 ± 11; the “Intestinal diameter, Ratio of blank control group (Mean ± SE)” value was 1.02 ± 0.03. Moreover, in experiment [3] (from intestinal area), the “Therapeutic ratio (%) (Mean ± SE)” value turned out to be 74±3.40%.
